From patent US6936609B2, “Imidazotriazines for use as phosphodiesterase inhibitors” (Bayer HealthCare AG, priority 2001, dated 2005) come the findings set out here.

The term melting point denotes the temperature of the solid-liquid transition. In turn, `CCCc1nc(C)c2c(Nc3cc(OC)c(OC)c(OC)c3)nc(-c3ccccc3OCC)nn12` [Example 44, 2-(2-Ethoxyphenyl)-5-methyl-7-propyl-N-(3,4,5-trimethoxyphenyl)imidazo[5,1-f]-[1,2,4]triazin-4-amine] showed a melting point of 112 to 114 °C.
`COc1cc(Oc2nc(-c3ccc(Br)cc3)nn3c(C)nc(C)c23)cc(OC)c1OC` [Example 28, 2-(4-Bromophenyl)-5,7-dimethyl-4-(3,4,5-trimethoxyphenoxy)imidazo[5,1-f]-[1,2,4]triazine]: the melting point came out at 199 °C.
Compound `COc1ccc(-c2nc(Nc3cc(C)c(OC)c(C)c3)c3c(C)nc(C4CCCC4)n3n2)cc1OC` [Example 15, 7-Cyclopentyl-2-(3,4-dimethoxyphenyl)-N-(4-methoxy-3,5-dimethylphenyl)-5-methylimidazo[5,1-f][1,2,4]triazin-4-amine] showed a melting point of 180 °C.
The compound `COc1ccc(-c2nc(Nc3cc(OC)c(OC)c(OC)c3)c3c(C)nc(C)n3n2)cc1Cl` [Example 34, 2-(3-Chloro-4-methoxyphenyl)-N-(3,4,5-trimethoxyphenyl)-5,7-dimethylimidazo-[5,1-f][1,2,4]triazin-4-amine] yielded a melting point of 194 to 195 °C.
In turn, `CCCc1nc(C)c2c(Sc3ccc(NC(C)=O)cc3)nc(-c3ccccc3OCC)nn12` [Example 36, N-(4-{[2-(2-Ethoxyphenyl)-5-methyl-7-propylimidazo[5,1-f][1,2,4]triazin-4-yl]-sulphanyl}phenyl)acetamide] gave a melting point of 226 to 228 °C.
The compound `COc1cc(OC)cc(-c2nc(Nc3cc(OC)c(OC)c(OC)c3)c3c(C)nc(C)n3n2)c1` [Example 54, 2-(3,5-Dimethoxyphenyl)-5,7-dimethyl-N-(3,4,5-trimethoxyphenyl)imidazo[5,1-f]-[1,2,4]triazin-4-amine] displayed a melting point of 176 to 179 °C.
For the compound `CCc1nc(C2CCCC2)n2nc(-c3ccc(OC)cc3)nc(Nc3cc(OC)c(OC)c(OC)c3)c12` [Example 26, N-[7Cyclopentyl-5-ethyl-2-(4-methoxyphenyl)imidazo[5,1-f][1,2,4]triazin-4-yl]-N-(3,4,5-trimethoxyphenyl)amine], the melting point came out at 160 °C.
With `COc1ccc(-c2nc(Oc3cc(OC)c(OC)c(OC)c3)c3c(C)nc(CC(C)C)n3n2)cc1Cl` [Example 30, 2-(3-Chloro-4-methoxyphenyl)-7-isobutyl-5-methyl-4-(3,4,5-trimethoxyphenoxy)-imidazo[5,1-f][1,2,4]triazine] the figure was 160 °C; with `COc1ccc(-c2nc(SCc3cccnc3)c3c(C)nc(C)n3n2)cc1OC` [Example 4, 2-(3,4-Dimethoxyphenyl)-5,7-dimethyl-4-[(3-pyridinylmethyl)sulphanyl]imidazo-[5,1-f][1,2,4]triazine], 161 °C.
The compound `CCCc1nc(C)c2c(Nc3cccc(Br)c3)nc(-c3ccccc3OCC)nn12` [Example 39, N-(3-Bromophenyl)-2-(2-ethoxyphenyl)-5-methyl-7-propylimidazo[5,1-f]-[1,2,4]triazin-4-amine] gave a melting point of 96 °C.
As for `COc1ccc(Nc2nc(-c3ccc(OC)c(OC)c3)nn3c(C)nc(C)c23)cc1Cl` [Example 13, N-(3-Chloro-4-methoxyphenyl)-2-(3,4-dimethoxyphenyl)-5,7-dimethylimidazo [5,1-f][1,2,4]triazin-4-amine], the figure is 195 °C; as for `COc1ccc(Nc2nc(-c3ccc(OC)c(OC)c3)nn3c(C4CCCC4)nc(C)c23)cc1` [Example 20, 7-Cyclopentyl-2-(3,4-dimethoxyphenyl)-N-(4-methoxyphenyl)-5-methylimidazo-[5,1-f][1,2,4]triazin-4-amine], 185 °C.
As for `CCOc1ccc(CCNc2nc(-c3ccc(Br)cc3)nn3c(C)nc(C)c23)cc1OC` [Example 35, 2-(4-Bromophenyl)-N-[2-(4-ethoxy-3-methoxyphenyl)ethyl]-5,7-dimethylimidazo-[5,1-f][1,2,4]triazin-4-amine], the melting point lay in the range of 188 to 190 °C.
As for `COc1ccc(-c2nc(Oc3cc(OC)c(OC)c(OC)c3)c3c(C)nc(C)n3n2)cc1OC` [Example 22, 2-(3,4-Dimethoxyphenyl)-5,7-dimethyl-4-(3,4,5-trimethoxyphenoxy)imidazo[5,1-f]-[1,2,4]triazine], the figure is 184 °C; as for `CCCc1nc(C)c2c(Oc3cc(OC)c(OC)c(OC)c3)nc(-c3ccccc3OCC)nn12` [Example 101, 2-(2-Ethoxyphenyl)-5-methyl-7-propyl-4-(3,4,5-trimethoxyphenoxy)imidazo[5,1-f]-[1,2,4]triazine], 153 °C; as for `COc1ccc(-c2nc(NCc3cc(OC)c(OC)c(OC)c3)c3c(C)nc(C4CCCC4)n3n2)cc1OC` [Example 17, 7-Cyclopentyl-2-(3,4-dimethoxyphenyl)-5-methyl-N-(3,4,5-trimethoxybenzyl)-imidazo[5,1-f][1,2,4]triazin-4-amine], 188 °C.
Take `COc1cccc(Nc2nc(-c3ccc(OC)c(OC)c3)nn3c(C4CCCC4)nc(C)c23)c1` [Example 23, 7-Cyclopentyl-2-(3,4-dimethoxyphenyl)-N-(3-methoxyphenyl)-5-methylimidazo-[5,1-f][1,2,4]triazin-4-amine]: the melting point is 126 °C.
`COc1ccc(-c2nc(Oc3cc(OC)c(OC)c(OC)c3)c3c(C)nc(C)n3n2)cc1Cl` [Example 29, 2-(3-Chloro-4-methoxyphenyl)-5,7-dimethyl-4-(3,4,5-trimethoxyphenoxy)imidazo-[5,1-f][1,2,4]triazine] displayed a melting point of 213 °C.
On to `CCC(CC)c1nc(C)c2c(Oc3cc(OC)c(OC)c(OC)c3)nc(-c3ccc(OC)c(Cl)c3)nn12` [Example 32, 2-(3Chloro-4-methoxyphenyl)-7-(1-ethylpropyl)-5-methyl-4-(3,4,5-trimethoxyphenoxy)imidazo[5,1-f][1,2,4]triazine], for which the melting point worked out at 166 °C.
`COc1ccc(-c2nc(Nc3cc(C)c(OC)c(C)c3)c3c(C)nc(C)n3n2)cc1OC` [Example 14, 2-(3,4-Dimethoxyphenyl)-N-(4-methoxy-3,5-dimethylphenyl)-5,7-dimethylimidazo-[5,1-f][1,2,4]triazin-4-amine] yielded a melting point of 173 °C.
`COc1ccc(CNc2nc(-c3ccc(Br)cc3)nn3c(C)nc(C)c23)cc1OC` [Example 51, 2-(4-Bromophenyl)-N-(3,4-dimethoxybenzyl)-5,7-dimethylimidazo[5,1-f]-[1,2,4]triazin-4-amine] gave a melting point of 119 to 122 °C.
In turn, `COc1cc(OC)cc(-c2nc(Oc3cc(OC)c(OC)c(OC)c3)c3c(C)nc(C)n3n2)c1` [Example 27, 2-(3,5-Dimethoxyphenyl)-5,7-dimethyl-4-(3,4,5-trimethoxyphenoxy)imidazo[5,1-f]-[1,2,4]triazine] displayed a melting point of 220 °C.
Compound `CCc1nc(C2CCCC2)n2nc(-c3ccc(OC)c(S(=O)(=O)N4CCOCC4)c3)nc(Oc3cc(OC)c(OC)c(OC)c3)c12` [Example 25, 7-Cyclopentyl-5-ethyl-2-[4-methoxy-3-(4-morpholinylsulphonyl)phenyl]-4-(3,4,5-trimethoxyphenoxy)imidazo[5,1-f][1,2,4]triazine] yielded a melting point of 119 °C.
